From publication PMC4336144, “Screening the Medicines for Malaria Venture "Malaria Box" against the Plasmodium falciparum Aminopeptidases, M1, M17 and M18” (PLoS ONE, 2015)

Tests used:
[1] = target: T1, PfA-M1 (Plasmodium falciparum, UniProt O96935); assay: Secondary screening against individual enzyme; assay type: biochemical; conditions: 100 μM compound; for PfA-M1 activity retained in the presence of compound: n = 3, of total enzyme activity; for reduction of PfA-M1 activity: n = 3
T1 construct: made in house; host or cells: Escherichia coli
T1 sequence (O96935 195-1085 limits assumed): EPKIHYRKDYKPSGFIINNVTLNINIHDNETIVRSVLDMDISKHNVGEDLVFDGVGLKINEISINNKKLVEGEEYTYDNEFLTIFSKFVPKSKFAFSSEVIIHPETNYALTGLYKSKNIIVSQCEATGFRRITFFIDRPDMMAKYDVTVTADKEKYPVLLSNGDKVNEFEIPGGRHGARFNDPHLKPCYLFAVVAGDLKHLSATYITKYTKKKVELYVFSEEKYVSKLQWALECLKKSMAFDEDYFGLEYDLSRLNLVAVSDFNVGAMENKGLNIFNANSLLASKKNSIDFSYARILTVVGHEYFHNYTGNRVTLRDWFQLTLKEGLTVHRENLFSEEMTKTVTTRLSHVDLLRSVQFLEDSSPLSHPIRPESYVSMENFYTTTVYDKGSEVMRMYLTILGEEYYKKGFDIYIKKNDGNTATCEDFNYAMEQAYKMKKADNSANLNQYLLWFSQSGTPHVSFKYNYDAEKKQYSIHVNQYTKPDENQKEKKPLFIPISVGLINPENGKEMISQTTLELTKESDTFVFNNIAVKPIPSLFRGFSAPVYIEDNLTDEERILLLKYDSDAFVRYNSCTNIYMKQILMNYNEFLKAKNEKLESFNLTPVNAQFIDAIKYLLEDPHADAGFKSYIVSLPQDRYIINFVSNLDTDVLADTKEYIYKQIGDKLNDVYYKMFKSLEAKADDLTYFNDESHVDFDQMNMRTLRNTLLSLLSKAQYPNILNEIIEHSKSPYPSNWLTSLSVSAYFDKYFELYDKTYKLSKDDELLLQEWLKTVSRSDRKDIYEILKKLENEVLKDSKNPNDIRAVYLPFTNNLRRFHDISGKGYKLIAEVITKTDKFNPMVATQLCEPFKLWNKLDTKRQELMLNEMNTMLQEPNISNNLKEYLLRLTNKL
Method: (§1) Aminopeptidase activity of each individual enzyme in the presence of a single MMV compound (100 μM) was determined using Leu-Mec for both PfA-M1 (15 nM) and PfA-M17 (80 nM) or Glu-pNA for PfM18AAP (125 nM). Reactions were carried out in 96-well microtitre plates (200 μl total volume) in 50 mM Tris-HCl pH 8.0, 2 mM CoCl2 at 37°C. Following a 10 min incubation (enzyme and compound) at 37°C, reactions were initiated by addition of enzyme specific substrate. Progress curves were monitored using a FLUOstar Omega multimode reader (BMG LabTech) for 1.5 h at 37°C. As activity references, individual enzyme 'no compound' controls and 'positive inhibitor' controls were included in each 96 well plate assay. We applied a cut-off of < 10% activity in the presence of 100 μM compound for selection to the next phase. Compounds that were selected to proceed were then used in further assays to obtain n = 3.

[2] = target: T2, PfA-M17 (Plasmodium falciparum, UniProt Q8IL11); assay: Secondary screening against individual enzyme; assay type: biochemical; conditions: 100 μM compound
T2 construct: made in house; host or cells: Escherichia coli
T2 sequence (Q8IL11 84-605 limits assumed): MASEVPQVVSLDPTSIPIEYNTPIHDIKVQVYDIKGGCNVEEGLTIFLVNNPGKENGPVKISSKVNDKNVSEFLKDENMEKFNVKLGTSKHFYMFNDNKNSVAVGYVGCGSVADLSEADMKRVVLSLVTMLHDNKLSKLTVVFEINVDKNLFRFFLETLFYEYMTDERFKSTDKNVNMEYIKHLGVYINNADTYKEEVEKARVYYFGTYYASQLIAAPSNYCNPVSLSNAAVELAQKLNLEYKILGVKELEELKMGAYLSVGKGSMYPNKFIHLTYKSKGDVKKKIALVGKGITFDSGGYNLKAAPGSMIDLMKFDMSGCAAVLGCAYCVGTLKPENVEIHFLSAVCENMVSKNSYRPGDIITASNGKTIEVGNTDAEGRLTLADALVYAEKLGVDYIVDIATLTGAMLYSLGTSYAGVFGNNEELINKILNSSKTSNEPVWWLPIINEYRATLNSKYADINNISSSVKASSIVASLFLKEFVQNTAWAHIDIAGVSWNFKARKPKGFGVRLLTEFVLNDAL
Method: as §1

[3] = target: T1, PfA-M1; assay: Determination of Ki values (Dixon plots, H-Leu-NHMec); assay type: biochemical; conditions: for Ki / Ki PfA-M1: Dixon plot; for Ki: read-out: Ki PfA-M1
Method: (§2) MMV020750 was purchased from InterBioScreen (catalog number STOCK2S-51608) and MMV666023 was purchased from ChemBridge (catalog number 5566248). The MMV020750 derivatives 1, 2 and 3 were purchased from Ambinter (catalog numbers AMB425981, AMB2311364 and AMB8506251 respectively). 4-(4,5-Diphenyl-1H-imidazol-2-yl)benzoic acid (4) was purchased from TCI Chemicals, while 4-(4,5-diphenyl-1H-imidazol-2-yl)-N-hydroxybenzamide (5) was prepared from 4 as described (S1 Methods). Aminopeptidase activity of both PfA-M1 and PfA-M17 enzymes was determined by measuring the release of the fluorogenic leaving group, NHMec, from the fluorogenic peptide L-Leucine-7-amido-4-methylcoumarin hydrochloride (H-Leu-NHMec) (Sigma L2145). The assay protocol devised by Stack CM, et al, (J. Biol Chem, 2007) was modified and used, with the reactions were carried out at 37°C and monitored using a spectrofluorometer (BMG FLUOstar) with excitation at 355 nm and emission at 460 nm. Each enzyme was pre-incubated in 50 mM Tris pH 8.0, 2 mM CoCl2; 5% DMSO with each inhibitor for 10 min prior to the addition of substrate. Inhibitor concentration was assayed between 0 and 500 μM final for each compound, and repeated over a narrowed range if necessary. The fluorescence signal was monitored until a final steady state velocity, V, was obtained. The K i values were then evaluated using Dixon plots of 1/V versus inhibitor concentration while the substrate concentration was maintained lower than that of the Km of the enzyme.

[4] = target: T2, PfA-M17; assay: as above; assay type: biochemical; conditions: for loss in inhibitory activity against PfA-M17: compared to parent MMV020750
Method: as §2
This was a particular problem with the PfA-M17 enzyme assays where we noted that at higher concentrations of 4, a decrease in fluorescence was observed. We hypothesise that this is a result of PfA-M17 binding to the compound and quenching the intrinsic fluorescence. […] We therefore chose to analyse a reduced concentration range for 4.

[5] = test system: PfA-M1 and/or PfA-M17; assay: Multiplex primary screen, fluorogenic substrate Leu-Mec; assay type: biochemical, Plasmodium falciparum; conditions: 100 μM compound, multiplex assay
Method: A multiplex enzyme assay was developed to complete the primary screen of 400 compounds that were provided to us by MMV and SCYNEXIS. Combined PfMAP (15 nM PfA-M1; 80 nM PfA-M17 and 125 nM PfM18AAP) aminopeptidase activity in the presence of a single MMV compound (100 μM solubilized in 100% dimethyl sulfoxide, DMSO, final DMSO concentration in assay = 10%) was determined by simultaneous measurement of the release of the fluorogenic leaving group, -NHMec, from L-Leucine-7-amido-4-methylcoumarin-HCl (Leu-Mec) (Sigma) as well as the hydrolysis of p-nitroanilide from the chromogenic substrate, L-Glutamic acid p-nitroanilide (Glu-pNA) (Sigma). The fluorogenic substrate records the combined activity of PfA-M1 and PfA-M17 while the p-nitroanilide substrate is specific for PfM18AAP. Reactions were carried out in 96-well microtitre plates (200 μL total volume) in 50 mM Tris-HCl pH 8.0, 2 mM CoCl2 at 37°C. Following a 10 min incubation (multi-enzyme and single compound) at 37°C, reactions were initiated by addition of both fluorogenic and chromagenic substrates. Progress curves were monitored using a FLUOstar Omega multimode reader (BMG LabTech) for 1.5 h at 37°C. As activity references, individual enzyme and multiple enzyme 'no compound' controls and 'positive inhibitor' controls (with 10% DMSO) were included in each 96 well plate assay.

CC(C)C[C@H](NC(=O)[C@@H](O)[C@H](N)Cc1ccccc1)C(=O)O [Bestatin, reference compound]
PfA-M1 activity, single dose secondary screen ([1]; n = 1): no neutral aminopeptidase activity is detectable
PfA-M1 activity retained in the presence of compound [1]: no neutral aminopeptidase activity is detectable
PfA-M17 activity, single dose secondary screen ([2]; n = 1): no neutral aminopeptidase activity is detectable
PfA-M17 activity retained in the presence of compound ([2]; n = 3): no neutral aminopeptidase activity is detectable

CN(CCO)c1ccc(-c2nc(-c3ccccc3)c(-c3ccccc3)[nH]2)cc1 [Compound 1]
Ki [3]: > 500 µM
Ki ([4]; Dixon plot): > 500 µM

COc1cc(-c2nc(-c3ccccc3)c(-c3ccccc3)[nH]2)ccc1OCC(N)=O [Compound 2]
Ki [3]: > 500 µM
Ki ([4]; Dixon plot): > 500 µM

COC(=O)c1ccc(-c2nc(-c3ccccc3)c(-c3ccccc3)[nH]2)cc1 [Compound 3]
Ki PfA-M1 [3]: micromolar range
Ki [3]: 120 µM
Ki ([4]; Dixon plot): 275 µM
loss in inhibitory activity against PfA-M17 [4]: > 10 fold

O=C(O)c1ccc(-c2nc(-c3ccccc3)c(-c3ccccc3)[nH]2)cc1 [Compound 4, 4-(4,5-Diphenyl-1H-imidazol-2-yl)benzoic acid]
Ki [3]: 5.2 µM
increase in potency against PfA-M1 ([3]; compared to MMV020750): > 10 fold
Ki ([4]; Dixon plot): 20 to 40 µM
Ki PfA-M17 ([4]; Dixon plot): micromolar range

O=C(NO)c1ccc(-c2nc(-c3ccccc3)c(-c3ccccc3)[nH]2)cc1 [Compound 5, 4-(4,5-diphenyl-1H-imidazol-2-yl)-N-hydroxybenzamide]
Ki PfA-M1 [3]: micromolar range
Ki [3]: 34 µM
Ki ([4]; Dixon plot): 187 µM
loss in inhibitory activity against PfA-M17 [4]: > 10 fold

Cc1ccnc(NC(c2cccc(OCc3ccccc3)c2)c2ccc3cccnc3c2O)c1 (stereo not drawn) [MMV000720]
Activity (PfA-M1 and/or PfA-M17) [5]: R

Oc1ccc(-c2nc(-c3ccc4oc5ccc(-c6[nH]c(-c7ccc(O)cc7)nc6-c6ccccc6)cc5c4c3)c(-c3ccccc3)[nH]2)cc1 [MMV000753]
Activity (PfA-M1 and/or PfA-M17) [5]: R

OCCNc1nc(Nc2ccc(Cl)c(Cl)c2)nc2ccccc12 [MMV001041]
Activity (PfA-M1 and/or PfA-M17) [5]: R

CN(C)c1ccc(C=Cc2nc(=O)c3ccccc3o2)cc1 [MMV006309]
Activity (PfA-M1 and/or PfA-M17) [5]: R

Cc1cccc(N2C(=O)C3C(C2=O)C2(c4ccccc4)C(=O)C3(c3ccccc3)C(c3ccc4c(c3)OCO4)=C2c2ccc3c(c2)OCO3)c1 (stereo not drawn) [MMV007228]
reduction of PfA-M1 activity [1]: 89%
Activity (PfA-M1 and/or PfA-M17) [5]: R

COc1cc(-c2nc(-c3ccc(Sc4ccccc4)cc3)c(-c3ccccc3)[nH]2)cc(OC)c1O [MMV007273]
PfA-M1 activity retained in the presence of compound [1]: ~75%
Activity (PfA-M1 and/or PfA-M17) [5]: R

COc1ccc2c(c1)OC(O)(C(F)(F)C(F)(F)F)CC2=O (stereo not drawn) [MMV007839]
Activity (PfA-M1 and/or PfA-M17) [5]: R

Nc1ccc(-c2nc3cc(Oc4ccc(Oc5ccc6[nH]c(-c7ccc(N)cc7)nc6c5)cc4)ccc3[nH]2)cc1 [MMV011895]
Activity (PfA-M1 and/or PfA-M17) [5]: R

O=C(Nc1ccc(-c2nc3cc4ccccc4cc3[nH]2)cc1)c1cccc(Br)c1 [MMV019241]
Activity (PfA-M1 and/or PfA-M17) [5]: R

COc1ccc(C=C2SC(Nc3ccc(F)cc3)=NC2=O)c(OC)c1 [MMV084434]
Activity (PfA-M1 and/or PfA-M17) [5]: R

COc1ccc(CCN2C(=O)c3[nH]nc(-c4cc(Cl)c(C)cc4O)c3C2c2ccccc2F)cc1 (stereo not drawn) [MMV396717]
Activity (PfA-M1 and/or PfA-M17) [5]: R

O=C(NNc1cc(N2CCCC2)nc(N2CCCC2)n1)c1ccccc1 [MMV396770]
Activity (PfA-M1 and/or PfA-M17) [5]: R

Cc1cccc(-n2ncc3c(O)nc(-n4nc(C)cc4NC(=O)c4cc5ccccc5o4)nc32)c1 [MMV403679]
reduction of PfA-M1 activity [1]: 75%
Activity (PfA-M1 and/or PfA-M17) [5]: R

Oc1c(C(Nc2ccccn2)c2cccc(Oc3ccccc3)c2)ccc2cccnc12 (stereo not drawn) [MMV665814]
Activity (PfA-M1 and/or PfA-M17) [5]: R

CCOC(=O)c1c(NC(=O)c2ccccc2)sc2c(O)c(CN(CC)CC)ccc12 [MMV665831]
Activity (PfA-M1 and/or PfA-M17) [5]: R

COc1ccc(/C=C2/SC(=Nc3ccccc3)NC2=O)cc1 [MMV665836]
Activity (PfA-M1 and/or PfA-M17) [5]: R

Cc1ccc(-c2cc(C(=O)Nc3ccc(S(=O)(=O)N4CCCCC4)cc3)[nH]n2)c(O)c1 [MMV665906]
Activity (PfA-M1 and/or PfA-M17) [5]: R

COc1cccc(C(=O)NC(c2ccc(C)cc2)c2cc(Cl)c3cccnc3c2O)c1 (stereo not drawn) [MMV665969]
Activity (PfA-M1 and/or PfA-M17) [5]: R

COc1ccc(C(=O)NC(c2ccccc2Cl)c2cc(Cl)c3cccnc3c2O)cc1 (stereo not drawn) [MMV666022]
Activity (PfA-M1 and/or PfA-M17) [5]: R

COc1ccc(C(=O)NC(c2ccc(Cl)cc2Cl)c2cc(Cl)c3cccnc3c2O)cc1 (stereo not drawn) [MMV666054]
reduction of PfA-M1 activity [1]: 87%
Activity (PfA-M1 and/or PfA-M17) [5]: R

COc1ccc(C=C2SC(=N)N(c3ccccc3OC)C2=O)cc1 [MMV666691]
Activity (PfA-M1 and/or PfA-M17) [5]: R
